Results reported in publication PMC11062899, “De novo development of small cyclic peptides that are orally bioavailable” (Nature Chemical Biology, 2023).
Several values for one entry are separate records, joined by “and”; a condition that tells them apart may be missing. Identical values can stand only once. Like-named read-outs stand apart in the source and are kept apart here.

Assays:
[1] = molecular target: human α-thrombin (Homo sapiens, UniProt P00734); experiment: Protease inhibition, Ki for human α-thrombin (fluorogenic substrate Z-Gly-Gly-Arg-AMC); format: biochemical; conditions: human alpha thrombin; for Slope normalized to DMSO (proteolytic substrate cleavage over time): replicates R1-R3
Outline: (§1)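 Ki derived through Cheng–Prusoff from IC50s (four-parameter logistic fit) against activity of peptide-free controls. Product fluorescence was read every 3 min over 30 min at 25 °C, substrate Z-Gly-Gly-Arg-AMC at 50 μM. Enzyme was 2 nM human or 3 nM rat α-thrombin, pH 7.4 buffer.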

[2] = molecular target: T1, rat α-thrombin (Rattus norvegicus, UniProt P18292); experiment: Protease inhibition, Ki for rat α-thrombin (fluorogenic substrate Z-Gly-Gly-Arg-AMC); format: biochemical; conditions: rat alpha thrombin; for Slope normalized to DMSO (proteolytic substrate cleavage over time): replicates R1-R3
T1 construct: rat α-thrombin (Molecular Innovations) were used at final concentrations of 2 nM and 3 nM; purchased Molecular Innovations
Outline: as §1

[3] = molecular target: T2, porcine pepsin (Sus scrofa, UniProt P00791); experiment: Peptide stability in simulated gastric fluid (SGF); format: in vitro ADME
T2 construct: 0.32 g of porcine pepsin (Sigma-Aldrich, P7125) was dissolved under gentle agitation; purchased Sigma-Aldrich P7125
Outline: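 Peptide from a 1 mM DMSO stock was added to fluid pre-warmed at 37 °C. SGF was pH 1.2 NaCl with porcine pepsin (0.32 g per 100 ml), and SIF was pH 6.8 potassium phosphate with porcine pancreatin (1 g per 100 ml). Supernatant peptide was quantified by LC–MS, with residual expressed as T1/T0.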

[4] = Passive artificial membrane permeability (PAMPA)
[5] = Metabolic stability in rat liver microsomes (RLMs); conditions: for microsomal CLint / half-life: rat, microsomes
Description: Metabolic stability was measured by incubating the peptides (10 μM) with RLMs. Peptides to test were dissolved in DMSO (4 mM), and 1 μl of the resulting solution was added to 365 μl of 0.1 M sodium phosphate buffer (pH 7.4). The solution was pre-warmed at 37 °C for 5 min before starting the reaction by addition of 24 μl of NADPH cofactor solution (22 mM) and 11 μl of RLMs (20 mg ml^−1 protein concentration; Thermo Fisher Scientific, RTMCPL). […] Samples were vortexed, sonicated for 5 min and centrifuged at 16,000g for 10 min. Supernatant was analyzed by LC–MS to quantify the disappearance of the compound and formation of degradation products.

T2 sequence (P00791 60-385): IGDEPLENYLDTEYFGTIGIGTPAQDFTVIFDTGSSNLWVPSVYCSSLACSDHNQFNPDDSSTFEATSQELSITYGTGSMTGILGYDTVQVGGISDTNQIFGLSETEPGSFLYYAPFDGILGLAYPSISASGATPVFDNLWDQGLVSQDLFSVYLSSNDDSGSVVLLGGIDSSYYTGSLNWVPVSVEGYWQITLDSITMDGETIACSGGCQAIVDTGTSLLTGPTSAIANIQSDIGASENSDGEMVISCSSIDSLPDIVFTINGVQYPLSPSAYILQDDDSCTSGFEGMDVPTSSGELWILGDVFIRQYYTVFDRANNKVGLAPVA

Structure (SMILES): O=C1CSCCC[C@H](NC(=O)c2ccc(Cl)s2)C(=O)N[C@@H](Cc2ccccc2)C(=O)N2CCC[C@@H]2CC(=O)NCCSC1 [compound 37]
- Ki ([1]; average of R1-R3, read-out: Ki Average, human alpha thrombin inhibition): 20.6 nM
- Slope normalized to DMSO (proteolytic substrate cleavage over time) ([1]; peptide 1.02E-03 uM): 99.8 and 96.2 and 96.4
- Slope normalized to DMSO (proteolytic substrate cleavage over time) ([1]; peptide 1.04E+00 uM): 4.2 and 21.2 and 8.1
- Slope normalized to DMSO (proteolytic substrate cleavage over time) ([1]; peptide 1.27E-04 uM): 99.4 and 96.4 and 91.4
- Slope normalized to DMSO (proteolytic substrate cleavage over time) ([1]; peptide 1.30E-01 uM): 13.4 and 22.3 and 23.1
- Slope normalized to DMSO (proteolytic substrate cleavage over time) ([1]; peptide 1.59E-05 uM): 98.7 and 104.2 and 99.3
- Slope normalized to DMSO (proteolytic substrate cleavage over time) ([1]; peptide 1.63E-02 uM): 59.7 and 68.6 and 65.4
- Slope normalized to DMSO (proteolytic substrate cleavage over time) ([1]; peptide 1.67E+01 uM): 1.8 and 5.4 and -0.5
- Slope normalized to DMSO (proteolytic substrate cleavage over time) ([1]; peptide 2.03E-03 uM): 99.7 and 85.8 and 91.5
- Slope normalized to DMSO (proteolytic substrate cleavage over time) ([1]; peptide 2.08E+00 uM): 2.6 and 15.2 and 7.7
- Slope normalized to DMSO (proteolytic substrate cleavage over time) ([1]; peptide 2.54E-04 uM): 103.4 and 95.2 and 94.0
- Slope normalized to DMSO (proteolytic substrate cleavage over time) ([1]; peptide 2.60E-01 uM): 9.5 and 17.0 and 11.6
- Slope normalized to DMSO (proteolytic substrate cleavage over time) ([1]; peptide 3.18E-05 uM): 100.4 and 94.1 and 100.2
- Slope normalized to DMSO (proteolytic substrate cleavage over time) ([1]; peptide 3.26E-02 uM): 41.8 and 49.6 and 51.1
- Slope normalized to DMSO (proteolytic substrate cleavage over time) ([1]; peptide 3.33E+01 uM): 1.5 and 2.2 and 1.9
- Slope normalized to DMSO (proteolytic substrate cleavage over time) ([1]; peptide 4.07E-03 uM): 80.8 and 82.5 and 73.0
- Slope normalized to DMSO (proteolytic substrate cleavage over time) ([1]; peptide 4.17E+00 uM): -1.2 and 8.8 and 5.3
- Slope normalized to DMSO (proteolytic substrate cleavage over time) ([1]; peptide 5.09E-04 uM): 101.9 and 94.6 and 97.3
- Slope normalized to DMSO (proteolytic substrate cleavage over time) ([1]; peptide 5.21E-01 uM): 4.7 and 16.3 and 9.9
- Slope normalized to DMSO (proteolytic substrate cleavage over time) ([1]; peptide 6.36E-05 uM): 101.6 and 98.2 and 102.0
- Slope normalized to DMSO (proteolytic substrate cleavage over time) ([1]; peptide 6.51E-02 uM): 27.8 and 39.2 and 31.3
- Slope normalized to DMSO (proteolytic substrate cleavage over time) ([1]; peptide 6.67E+01 uM): 4.9 and 8.1 and 5.5
- Slope normalized to DMSO (proteolytic substrate cleavage over time) ([1]; peptide 7.95E-06 uM): 99.9 and 99.1 (2×)
- Slope normalized to DMSO (proteolytic substrate cleavage over time) ([1]; peptide 8.14E-03 uM): 73.2 and 74.4 and 76.4
- Slope normalized to DMSO (proteolytic substrate cleavage over time) ([1]; peptide 8.33E+00 uM): -0.9 and 2.2 and 1.0
- IC50 ([1]; single replicates R1-R3, read-out: IC50, human alpha thrombin inhibition): 21.8 nM and 29.6 nM and 28.8 nM
- Ki ([1]; single replicates R1-R3, read-out: Ki, human alpha thrombin inhibition): 16.8 nM (2×) and 22.8 nM (2×) and 22.2 nM (2×)
- Ki ([2]; average of R1-R3, read-out: Ki Average, rat alpha thrombin inhibition): 4.1 nM
- Slope normalized to DMSO (proteolytic substrate cleavage over time) ([2]; peptide 1.02E-03 uM): 91.4 and 90.1 and 86.3
- Slope normalized to DMSO (proteolytic substrate cleavage over time) ([2]; peptide 1.04E+00 uM): 6.1 and 5.3 and 3.6
- Slope normalized to DMSO (proteolytic substrate cleavage over time) ([2]; peptide 1.27E-04 uM): 98.4 and 98.1 and 97.2
- Slope normalized to DMSO (proteolytic substrate cleavage over time) ([2]; peptide 1.30E-01 uM): 10.0 and 9.6 and 8.5
- Slope normalized to DMSO (proteolytic substrate cleavage over time) ([2]; peptide 1.59E-05 uM): 101.7 and 102.0 and 103.9
- Slope normalized to DMSO (proteolytic substrate cleavage over time) ([2]; peptide 1.63E-02 uM): 36.7 and 39.2 and 35.6
- Slope normalized to DMSO (proteolytic substrate cleavage over time) ([2]; peptide 1.67E+01 uM): 4.9 and 5.5
- Slope normalized to DMSO (proteolytic substrate cleavage over time) ([2]; peptide 2.03E-03 uM): 80.6 and 80.8 and 78.9
- Slope normalized to DMSO (proteolytic substrate cleavage over time) ([2]; peptide 2.08E+00 uM): 5.5 and 5.7 and 3.5
- Slope normalized to DMSO (proteolytic substrate cleavage over time) ([2]; peptide 2.54E-04 uM): 97.2 and 96.7 and 93.7
- Slope normalized to DMSO (proteolytic substrate cleavage over time) ([2]; peptide 2.60E-01 uM): 7.6 and 5.4 and 6.9
- Slope normalized to DMSO (proteolytic substrate cleavage over time) ([2]; peptide 3.18E-05 uM): 100.1 and 100.5 and 98.3
- Slope normalized to DMSO (proteolytic substrate cleavage over time) ([2]; peptide 3.26E-02 uM): 26.4 and 25.2 and 22.3
- Slope normalized to DMSO (proteolytic substrate cleavage over time) ([2]; peptide 3.33E+01 uM): 4.6 and 5.2 and 4.1
- Slope normalized to DMSO (proteolytic substrate cleavage over time) ([2]; peptide 4.07E-03 uM): 63.4 and 62.5 and 70.6
- Slope normalized to DMSO (proteolytic substrate cleavage over time) ([2]; peptide 4.17E+00 uM): 4.9 and 5.8 and -9.8
- Slope normalized to DMSO (proteolytic substrate cleavage over time) ([2]; peptide 5.09E-04 uM): 93.0 and 91.4 and 91.1
- Slope normalized to DMSO (proteolytic substrate cleavage over time) ([2]; peptide 5.21E-01 uM): 5.7 and 6.4 and 5.0
- Slope normalized to DMSO (proteolytic substrate cleavage over time) ([2]; peptide 6.36E-05 uM): 98.0 and 98.8 and 98.4
- Slope normalized to DMSO (proteolytic substrate cleavage over time) ([2]; peptide 6.51E-02 uM): 15.4 and 15.1 and 13.7
- Slope normalized to DMSO (proteolytic substrate cleavage over time) ([2]; peptide 6.67E+01 uM): 5.1 and 5.7 and 2.7
- Slope normalized to DMSO (proteolytic substrate cleavage over time) ([2]; peptide 7.95E-06 uM): 105.0 and 102.5 and 101.4
- Slope normalized to DMSO (proteolytic substrate cleavage over time) ([2]; peptide 8.14E-03 uM): 49.4 and 48.0 and 46.0
- Slope normalized to DMSO (proteolytic substrate cleavage over time) ([2]; peptide 8.33E+00 uM): 5.4 and 5.3 and 3.8
- IC50 ([2]; single replicates R1-R3, read-out: IC50, rat alpha thrombin inhibition): 7.27 nM and 7.19 nM and 7.91 nM
- Ki ([2]; single replicates R1-R3, read-out: Ki, rat alpha thrombin inhibition): 4.03 nM (2×) and 3.98 nM (2×) and 4.38 nM (2×)
- SGF stability, Residual peptide Average ([3]; after 8 h vs 0 h (TIC), average of R1-R3): 106.20
- SGF stability, Residual peptide ([3]; after 8 h vs 0 h (TIC), single replicates R1-R3): 119.66 and 103.22 and 95.72
- remaining at 8 h ([3]; simulated gi fluid, 8 h, 37 °C, pH 1.2, read-out: Proteolytic stability: SGF (8 h) % remaining): 106 ± 12%
- PAMPA permeability: % permeability ([4]; 50 μM, 12–18 h, acceptor concentration relative to equilibrium): 31 ± 10%
- Papp at 50 μM ([4]; PAMPA, pH 7.4): 3.47 ×10⁻⁶ cm/s
- Permeability% Average ([4]; top well sample vs theoretical equilibrium sample (TIC), average of R1-R3): 30.8%
- Permeability% ([4]; top well sample vs theoretical equilibrium sample (TIC), single replicates R1-R3): 38.94% and 34.26% and 19.17%
- TIC value of compound, 0 min, R1 ([5]; rat liver microsomes, 0 min, replicate R1): 9508843
- TIC value of compound, 0 min, R3 ([5]; rat liver microsomes, 0 min, replicate R3): 9444065
- TIC value of compound, 5 min, R1 ([5]; rat liver microsomes, 5 min, replicate R1): 8851267
- TIC value of compound, 5 min, R3 ([5]; rat liver microsomes, 5 min, replicate R3): 7487448
- TIC value of compound, 15 min, R1 ([5]; rat liver microsomes, 15 min, replicate R1): 4635928
- TIC value of compound, 15 min, R3 ([5]; rat liver microsomes, 15 min, replicate R3): 4037534
- TIC value of compound, 30 min, R1 ([5]; rat liver microsomes, 30 min, replicate R1): 2932536
- TIC value of compound, 30 min, R3 ([5]; rat liver microsomes, 30 min, replicate R3): 1896940
- TIC value of compound, 60 min, R1 ([5]; rat liver microsomes, 60 min, replicate R1): 631769
- TIC value of compound, 60 min, R3 ([5]; rat liver microsomes, 60 min, replicate R3): 473870
- microsomal CLint ([5]; CL (ul/min/mg protein), R1, RLM CL, replicate R1, unrounded): 81.1 µL/min/mg
- microsomal CLint ([5]; CL (ul/min/mg protein), R2, RLM CL, replicate R2, unrounded): 98 µL/min/mg
- microsomal CLint ([5]; CL (ul/min/mg protein), R3, RLM CL, replicate R3, unrounded): 107 µL/min/mg
- half-life ([5]; Half Life (min), R1, RLM metabolic stability, replicate R1): 17.1 min
- half-life ([5]; Half Life (min), R2, RLM metabolic stability, replicate R2): 14.2 min
- half-life ([5]; Half Life (min), R3, RLM metabolic stability, replicate R3): 12.9 min
- half-life ([5]; Metabolic stability: Half life T1/2 (min), RLMs, mean and SD, three measurements): 14.7 ± 1.7 min
- microsomal CLint ([5]; Metabolic stability: RLM CL (ul/min/mg), RLMs, mean and SD, three measurements): 95 ± 11 µL/min/mg
- microsomal CLint ([5]; RLM CL, Average, average of R1-R3): 95.4 µL/min/mg
- microsomal CLint ([5]; RLM CL, R1, RLM CL, replicate R1, summary block): 81.1 µL/min/mg
- microsomal CLint ([5]; RLM CL, R2, RLM CL, replicate R2, summary block): 98 µL/min/mg
- microsomal CLint ([5]; RLM CL, R3, RLM CL, replicate R3, summary block): 107 µL/min/mg
